According to BindingDB's records for doi:10.1124/mol.64.6.1342 (University of Pittsburgh, 2003):
Where “and” joins values, the source holds several entries; their conditions need not be identical. Equal entries are not always repeated.

Experiments:
[1] = target: Protein kinase C delta type (Homo sapiens, UniProt Q05655)
[2] = target: Protein kinase C alpha type (Homo sapiens, UniProt P17252)

Protein kinase C delta type, sequence (Q05655 whole entry): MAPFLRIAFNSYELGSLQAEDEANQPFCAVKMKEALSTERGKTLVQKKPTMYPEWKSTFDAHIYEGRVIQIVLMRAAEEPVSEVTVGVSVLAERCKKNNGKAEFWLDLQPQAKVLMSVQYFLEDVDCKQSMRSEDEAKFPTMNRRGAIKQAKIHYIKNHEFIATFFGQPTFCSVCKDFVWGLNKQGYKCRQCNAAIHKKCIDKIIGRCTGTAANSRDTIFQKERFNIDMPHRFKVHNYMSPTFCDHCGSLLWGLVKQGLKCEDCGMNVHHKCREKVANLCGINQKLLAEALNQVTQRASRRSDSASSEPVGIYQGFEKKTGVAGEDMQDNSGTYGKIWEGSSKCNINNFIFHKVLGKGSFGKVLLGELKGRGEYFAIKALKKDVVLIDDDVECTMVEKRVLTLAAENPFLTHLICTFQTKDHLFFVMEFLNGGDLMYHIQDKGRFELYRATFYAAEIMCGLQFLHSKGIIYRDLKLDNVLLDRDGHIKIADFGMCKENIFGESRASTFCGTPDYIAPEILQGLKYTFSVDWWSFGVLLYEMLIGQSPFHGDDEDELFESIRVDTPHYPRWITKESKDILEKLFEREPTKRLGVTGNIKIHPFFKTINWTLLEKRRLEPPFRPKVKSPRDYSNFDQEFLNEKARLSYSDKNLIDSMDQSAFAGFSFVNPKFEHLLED

Compound	Ki [1]	Ki [2]
CC1=CC2C(O)(CC(CO)=CC3C4C(C)(C)C4(OC(=O)Cc4ccccc4)CC(C)C32O)C1=O (configuration not stated) [NSC_105100]	0.56 nM	0.14 nM
C=C(C)C12OC3(c4ccccc4)OC1C1C4OC4(CO)C(O)C4(O)C(=O)C(C)=CC4C1(O3)C(C)C2OC(=O)C=Cc1ccccc1 (configuration not stated) [NSC_6437389]	1.31 nM and 10.7 nM	0.29 nM and 0.22 nM
CC(C)C1C(=O)NC(CO)Cc2c[nH]c3cccc(c23)N1C (stereo not drawn) [(-)-Indolactam V (low PS)]	8.16 nM and 43.1 nM	12.6 nM
CCC(C)(C/C=C1/CC(CO)(COC(=O)CC(C)(CC)C(C)C)OC1=O)C(C)C (stereo not drawn) [B8-DL-B8 (low PS)]	11.6 nM and 10 nM	2.9 nM and 3.57 nM
C=C(C)C12OC3(c4ccccc4)OC1C1C4OC4(CO)C(O)C4(O)C(=O)C(C)=CC4C1(O3)C(C)C2OC(=O)C=CC=Cc1ccccc1 (configuration not stated) [NSC_4179]	0.55 nM	0.27 nM
CCCCCCCCc1ccc2c3c(c[nH]c13)CC(CO)NC(=O)C(C(C)C)N2C (configuration not stated) [CAS_159320]	0.77 nM	0.53 nM
